Source: US10577363B2, “Substituted piperidine compounds” (EPIZYME, INC., priority 2014, dated 2020)

What was measured:
[1] = target: T1, SMYD3 (Homo sapiens (Human), UniProt Q9H7B4); experiment: SMYD3 cell assay (Trimethyl-MEKK2 In-Cell Western in 293T/17 cells); type: cell-based; details: average of n = 1 to n = 50; read-out: SMYD3 Cell IC50
How it was run: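 In-Cell Western readout: methanol-fixed cells stained for trimethyl-MEKK2 and flag tag, ratio per well normalized to DMSO and background controls.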

[2] = target: T1, SMYD3; experiment: SMYD3 biochemical assay (SPA, 3H-SAM methylation of MEKK2 protein substrate); details: average of n = 1 to n = 50; read-out: SMYD3 Biochem IC50
How it was run: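 Methylation of N-terminally GST-tagged MEKK2 by untagged full-length human SMYD3, using 3H-SAM, in pH 8.0 Tris buffer with TCEP, BSG and Tween 20; enzyme and compound sat 30 min at room temperature before substrate addition. Stopped with 100 uM (final) cold SAM; incorporation read by scintillation proximity as dpm/cpm.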

T1 sequence (Q9H7B4 whole entry): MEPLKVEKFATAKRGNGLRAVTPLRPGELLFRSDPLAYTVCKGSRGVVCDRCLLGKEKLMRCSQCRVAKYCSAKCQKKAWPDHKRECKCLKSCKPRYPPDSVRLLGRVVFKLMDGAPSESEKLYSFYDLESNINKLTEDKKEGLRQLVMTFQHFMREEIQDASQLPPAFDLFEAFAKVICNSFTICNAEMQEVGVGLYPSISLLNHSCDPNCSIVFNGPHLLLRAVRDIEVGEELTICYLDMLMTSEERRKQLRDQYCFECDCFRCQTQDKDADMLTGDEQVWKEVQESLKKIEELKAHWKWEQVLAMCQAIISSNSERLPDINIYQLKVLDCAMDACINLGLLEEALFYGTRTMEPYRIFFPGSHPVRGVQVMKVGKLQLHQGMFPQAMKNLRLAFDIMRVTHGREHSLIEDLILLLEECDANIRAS

SMILES	IC50 [1] [nM]	IC50 [2] [nM]
CN(CCCS(=O)(=O)N1[C@@H]2CC[C@H]1C[C@@H](NC(=O)c1cc(C3CC3)on1)C2)CCN1CCOCC1 [compound 703, 5-cyclopropyl-N-((1R,3r,5S)-8-((3-(methyl(2-morpholinoethyl)amino)propyl)sulfonyl)-8-azabicyclo[3.2.1]octan-3-yl)isoxazole-3-carboxamide]	804	217
O=C(N[C@H]1C[C@H]2CC[C@@H](C1)N2S(=O)(=O)CCNCCc1ccccc1)c1cc(C2CC2)on1 [compound 705, 5-cyclopropyl-N-((1R,3r,5S)-8-((2-(phenethylamino)ethyl)sulfonyl)-8-azabicyclo[3.2.1]octan-3-yl)isoxazole-3-carboxamide]	1510	225
C[C@H]1C[C@@H](NC(=O)c2cc(C3CC3)on2)CCN1S(=O)(=O)c1ccncc1 [compound 706, 5-cyclopropyl-N-((2S,4S)-2-methyl-1-(pyridin-4-ylsulfonyl)piperidin-4-yl)isoxazole-3-carboxamide]	1210	238
O=C(N[C@H]1CCN(S(=O)(=O)CC2CCN(CCCO)CC2)[C@@H](Cc2ccccc2)C1)c1cc(C2CC2)on1 [compound 707, N-((2S,4S)-2-benzyl-1-(((1-(3-hydroxypropyl)piperidin-4-yl)methyl)sulfonyl)piperidin-4-yl)-5-cyclopropylisoxazole-3-carboxamide]	2540	247
C[C@H]1C[C@@H](NC(=O)c2cc(C3CC3)on2)CCN1S(=O)(=O)c1cccc(N)n1 [compound 708, N-((2S,4S)-1-((6-aminopyridin-2-yl)sulfonyl)-2-methylpiperidin-4-yl)-5-cyclopropylisoxazole-3-carboxamide]	1660	252
CN1CCC(N(C)S(=O)(=O)N2[C@@H]3CCC[C@@H]2CC(NC(=O)c2cc(C4CC4)on2)C3)CC1 (stereo partly drawn) [compound 709, 5-cyclopropyl-N-((1R,5R)-9-(N-methyl-N-(1-methylpiperidin-4-yl)sulfamoyl)-9-azabicyclo[3.3.1]nonan-3-yl)isoxazole-3-carboxamide]	1920	258
C[C@H]1CN(S(=O)(=O)N2CCN(C)CC2)CC[C@H]1NC(=O)c1cc(C2CC2)on1 [compound 710, 5-cyclopropyl-N-((3S,4R)-3-methyl-1-((4-methylpiperazin-1-yl)sulfonyl)piperidin-4-yl)isoxazole-3-carboxamide]	831	261
CC[C@@H]1CN(S(=O)(=O)N2CC[C@H](NC(=O)c3cc(C4CC4)on3)C[C@@H]2C)CCN1C [compound 711, 5-cyclopropyl-N-((2S,4S)-1-(((R)-3-ethyl-4-methylpiperazin-1-yl)sulfonyl)-2-methylpiperidin-4-yl)isoxazole-3-carboxamide]	1150	272
C[C@@H]1CN(S(=O)(=O)N2CC[C@H](NC(=O)c3cc(C4CC4)on3)C[C@@H]2C)[C@@H](C)CN1C [compound 712, 5-cyclopropyl-N-((2S,4S)-2-methyl-1-(((2S,5R)-2,4,5-trimethylpiperazin-1-yl)sulfonyl)piperidin-4-yl)isoxazole-3-carboxamide]	1100	275
CCC1CN(S(=O)(=O)N2[C@@H]3CC[C@H]2C[C@@H](NC(=O)c2cc(C4CC4)on2)C3)CCN1C (stereo partly drawn) [compound 713, 5-cyclopropyl-N-((1R,3r,5S)-8-((3-ethyl-4-methylpiperazin-1-yl)sulfonyl)-8-azabicyclo[3.2.1]octan-3-yl)isoxazole-3-carboxamide]	1180	293
CN(C1CCNCC1)S(=O)(=O)N1CC[C@@H](NC(=O)c2cc(C3CC3)on2)C[C@@H]1Cc1ccccc1 [compound 714, N-((2S,4R)-2-benzyl-1-(N-methyl-N-(piperidin-4-yl)sulfamoyl)piperidin-4-yl)-5-cyclopropylisoxazole-3-carboxamide]	3150	295
CN(C1CCNCC1)S(=O)(=O)N1CC[C@H](NC(=O)c2cc(C3CC3)on2)C[C@H]1Cc1ccccc1 [compound 715, N-((2R,4S)-2-benzyl-1-(N-methyl-N-(piperidin-4-yl)sulfamoyl)piperidin-4-yl)-5-cyclopropylisoxazole-3-carboxamide]	3040	297
C[C@@H]1C[C@H](NC(=O)c2cc(C3CC3)on2)CCN1S(=O)(=O)CCC(N)Cc1ccccc1 (stereo partly drawn) [compound 716, N-((2R,4R)-1-((3-amino-4-phenylbutyl)sulfonyl)-2-methylpiperidin-4-yl)-5-cyclopropylisoxazole-3-carboxamide]	3530	303
O=C(N[C@H]1CCN(S(=O)(=O)C2CCNC2)[C@@H](Cc2ccccc2)C1)c1cc(C2CC2)on1 (stereo partly drawn) [compound 717, N-((2S,4S)-2-benzyl-1-(pyrrolidin-3-ylsulfonyl)piperidin-4-yl)-5-cyclopropylisoxazole-3-carboxamide]	2020	306
CN1CCC(N(C)S(=O)(=O)N2[C@@H]3CCC[C@H]2C[C@H](NC(=O)c2cc(C4CC4)on2)C3)CC1 [compound 718, 5-cyclopropyl-N-((1R,3s,5S)-9-(N-methyl-N-(1-methylpiperidin-4-yl)sulfamoyl)-9-azabicyclo[3.3.1]nonan-3-yl)isoxazole-3-carboxamide]	1620	309
C[C@H]1CN(S(=O)(=O)N(C)C2CCN(Cc3ccccc3)CC2)CC[C@H]1NC(=O)c1cc(C2CC2)on1 [compound 719, N-((3S,4R)-1-(N-(1-benzylpiperidin-4-yl)-N-methylsulfamoyl)-3-methylpiperidin-4-yl)-5-cyclopropylisoxazole-3-carboxamide]	1210	320
COCCN1CCC(CS(=O)(=O)N2CC[C@H](NC(=O)c3cc(C4CC4)on3)C[C@@H]2Cc2ccccc2)CC1 [compound 720, N-((2S,4S)-2-benzyl-1-(((1-(2-methoxyethyl)piperidin-4-yl)methyl)sulfonyl)piperidin-4-yl)-5-cyclopropylisoxazole-3-carboxamide]	2430	322
O=C(N[C@@H]1C[C@H]2CC[C@@H](C1)N2S(=O)(=O)CC1CCCNC1)c1cc(C2CC2)on1 (stereo partly drawn) [compound 721, 5-cyclopropyl-N-((1R,3s,5S)-8-((piperidin-3-ylmethyl)sulfonyl)-8-azabicyclo[3.2.1]octan-3-yl)isoxazole-3-carboxamide]	1830	322
O=C(N[C@H]1C[C@H]2CC[C@@H](C1)N2S(=O)(=O)N1CCNC(c2ccccc2)C1)c1cc(C2CC2)on1 (stereo partly drawn) [compound 722, 5-cyclopropyl-N-((1R,3r,5S)-8-((3-phenylpiperazin-1-yl)sulfonyl)-8-azabicyclo[3.2.1]octan-3-yl)isoxazole-3-carboxamide]	1520	326
O=C(N[C@@H]1CCN(S(=O)(=O)CC2CCNCC2)[C@@H](Cc2ccccc2)C1)c1cc(C2CC2)on1 [compound 723, N-((2S,4R)-2-benzyl-1-((piperidin-4-ylmethyl)sulfonyl)piperidin-4-yl)-5-cyclopropylisoxazole-3-carboxamide]	2730	326
CN(C1CCNCC1)S(=O)(=O)N1[C@@H]2CC[C@H]1C[C@H](NC(=O)c1cc(C3CC3)on1)C2 [compound 724, 5-cyclopropyl-N-((1R,3s,5S)-8-(N-methyl-N-(piperidin-4-yl)sulfamoyl)-8-azabicyclo[3.2.1]octan-3-yl)isoxazole-3-carboxamide]	2440	333
O=C(N[C@H]1CCN(S(=O)(=O)C2CCCNC2)[C@@H](Cc2ccccc2)C1)c1cc(C2CC2)on1 (stereo partly drawn) [compound 725, N-((2S,4S)-2-benzyl-1-(piperidin-3-ylsulfonyl)piperidin-4-yl)-5-cyclopropylisoxazole-3-carboxamide]	3070	340
O=C(N[C@H]1C[C@H]2CC[C@@H](C1)N2S(=O)(=O)CCN1CCC(OCc2ccccc2)C1)c1cc(C2CC2)on1 (stereo partly drawn) [compound 726, N-((1R,3r,5S)-8-((2-(3-(benzyloxy)pyrrolidin-1-yl)ethyl)sulfonyl)-8-azabicyclo[3.2.1]octan-3-yl)-5-cyclopropylisoxazole-3-carboxamide]	2470	360
CNC/C=C/S(=O)(=O)N1CCC(NC(=O)c2cc(C3CC3)on2)CC1 [compound 727, (E)-5-cyclopropyl-N-(1-((3-(methylamino)prop-1-en-1-yl)sulfonyl)piperidin-4-yl)isoxazole-3-carboxamide]	1390	363
CC(C)[C@@H]1CN(S(=O)(=O)N2CC[C@H](NC(=O)c3cc(C4CC4)on3)C[C@@H]2C)CCN1C [compound 728, 5-cyclopropyl-N-((2S,4S)-1-(((R)-3-isopropyl-4-methylpiperazin-1-yl)sulfonyl)-2-methylpiperidin-4-yl)isoxazole-3-carboxamide]	1370	380
O=C(N[C@@H]1C[C@H]2CC[C@@H](C1)N2S(=O)(=O)C1CCCNC1)c1cc(C2CC2)on1 (stereo partly drawn) [compound 729, 5-cyclopropyl-N-((1R,3s,5S)-8-(piperidin-3-ylsulfonyl)-8-azabicyclo[3.2.1]octan-3-yl)isoxazole-3-carboxamide]	2530	411
Nc1cc(S(=O)(=O)N2[C@@H]3CCC[C@H]2C[C@@H](NC(=O)c2cc(C4CC4)on2)C3)ccn1 [compound 730, N-((1R,3r,5S)-9-((2-aminopyridin-4-yl)sulfonyl)-9-azabicyclo[3.3.1]nonan-3-yl)-5-cyclopropylisoxazole-3-carboxamide]	1320	413
